Reference: patent US7777077B2, “Dual-acting antihypertensive agents” (Theravance, Inc., priority 2007, dated 2010)

Key:
human AT1 receptor = target: T1, human AT1 receptor (Homo sapiens, UniProt P30556); assay: AT1 radioligand binding assay; settings: [Eu]AngII displacement, membranes of CHO-K1 cells expressing human AT1; read-out: pKi at the AT1 receptor (converted)
T1 construct: expressed in transfected cells; membranes
T1 sequence (P30556 1-359): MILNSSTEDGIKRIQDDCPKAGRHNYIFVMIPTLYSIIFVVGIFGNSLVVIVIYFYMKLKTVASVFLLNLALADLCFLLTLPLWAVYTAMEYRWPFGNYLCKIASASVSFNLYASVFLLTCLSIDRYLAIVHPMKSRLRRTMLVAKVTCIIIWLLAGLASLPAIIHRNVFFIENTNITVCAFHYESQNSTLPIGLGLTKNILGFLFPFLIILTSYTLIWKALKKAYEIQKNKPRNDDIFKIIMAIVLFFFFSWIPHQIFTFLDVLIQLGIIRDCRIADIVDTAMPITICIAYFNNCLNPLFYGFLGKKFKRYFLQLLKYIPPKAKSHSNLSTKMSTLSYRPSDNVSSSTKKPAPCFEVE
Description: These in vitro assays were used to assess the ability of test compounds to bind to the AT1 and the AT2 receptors.
Chinese hamster ovary (CHO-K1) derived cell lines stably expressing the cloned human AT1 or AT2 receptors, respectively, were grown in HAM's-F12 medium supplemented with 10% fetal bovine serum, 10 μg/ml penicillin/streptomycin, and 500 μg/ml geneticin in a 5% CO2 humidified incubator at 37° C. AT2 receptor expressing cells were grown in the additional presence of 100 nM PD123,319 (AT2 antagonist). When cultures reached 80-95% confluence, the cells were washed thoroughly in PBS and lifted with 5 mM EDTA. Cells were pelleted by centrifugation and snap frozen in MeOH-dry ice and stored at −80° C. until further use.
For membrane preparation, cell pellets were resuspended in lysis buffer (25 mM Tris/HCl pH 7.5 at 4° C., 1 mM EDTA, and one tablet of Complete Protease Inhibitor Cocktail Tablets with 2 mM EDTA per 50 mL buffer (Roche cat.#1697498, Roche Molecular Biochemicals, Indianapolis, Ind.)) and homogenized using a tight-fitting Dounce glass homogenizer (10 strokes) on ice. The homogenate was centrifuged at 1000×g, the supernatant was collected and centrifuged at 20,000×g. […] Protein concentration of the membrane suspension was determined by the method described in Bradford (1976) Anal Biochem. 72:248-54. […]

NEP enzyme = NEP enzyme (UniProt P08473); assay: In vitro NEP enzyme inhibition assay; assay type: biochemical; settings: fluorogenic peptide substrate; human or rat NEP not given
Description: The inhibitory activities of compounds at human and rat NEP and human ACE were determined using in vitro assays as described below.
Rat NEP was prepared from the kidneys of adult Sprague Dawley rats. Whole kidneys were washed in cold PBS and brought up in ice-cold lysis buffer (1% Triton X-114, 150 mM NaCl, 50 mM Tris pH 7.5; Bordier (1981) J. Biol. Chem. 256:1604-1607) in a ratio of 5 mL of buffer for every gram of kidney. Samples were homogenized using a polytron hand held tissue grinder on ice. Homogenates were centrifuged at 1000×g in a swinging bucket rotor for 5 minutes at 3° C. The pellet was resuspended in 20 mL of ice cold lysis buffer and incubated on ice for 30 minutes. […] Protein concentrations were quantitated using a BCA detection system with BSA as a standard. […]
The assays were performed in 384-well white opaque plates at room temperature using the respective fluorogenic peptides at a concentration of 10 μM in assay buffer (50 mM Tris/HCl at 25° C., 100 mM NaCl, 0.01% Tween-20, 1 μM Zn, 0.025% BSA). […] The rat NEP enzyme preparation was used at a concentration that yielded quantitative proteolysis of 3 μM of Mca-RRL within 20 minutes at room temperature.
Assays were started by adding 25 μL of enzyme to 12.5 μL of test compound at 12 concentrations ([…]). […] Plates were read on a fluorometer with excitation and emission wavelengths set to 320 nm and 405 nm, respectively. […]

Q: Which results are given for `CCCC(=O)N(CCNC(=O)C(CS)CC(C)C)Cc1ccc(-c2ccccc2-c2nnn[nH]2)cc1` (centres unmarked) [Example 1, 2-Mercaptomethyl-4-methylpentanoic Acid (2-Butyryl-[2′-(1H-tetrazol-5-yl)biphenyl-4-ylmethyl]aminoethyl)amide]?
A: Ki (human AT1 receptor): < 0.1 µM; pIC50 for the NEP enzyme (NEP enzyme): greater than or equal to 7.0
